No end group written: not given here.
Key:
[1] = test system: Rat primary cortical cultures; parameters: method as in PMID 25669902; settings: cited from earlier work
Method: To assess peptide proteolytic stability, R18 and R18D neuroprotective efficacy after incubation with tPA, TNK or trypsin was examined in the glutamic acid excitotoxicity model. Peptides were added to culture wells (96-well plate format) 5 min prior to glutamic acid exposure by removing media and adding 50 µL of media containing R18 or R18D at a 2 µM concentration. To induce excitotoxicity, 50 µL of Minimal Essential Media (Life Technologies)/2% B27 (MEM/B27) containing glutamic acid (200 µM: final concentration 100 µM; L-glutamic acid. L-glutamic acid was prepared as a 10,000 µM stock in water ...

tPA or TNK [2] = format: biochemical, human
Method: (§1) We utilised a high throughput 96-well plate thrombolysis assay (“halo clot assay”) based on the procedure developed by Bonnard et al.. To reduce assay components the halo thrombus formation procedure was modified by replacing the original thrombotic mixture consisting of recombinant tissue factor and synthetic phospholipids reconstituted in 30 mM calcium, with thrombin, and reducing the pro-thrombotic volume (i.e., thrombin) from 5 to 3 µL and blood volume from 25 to 12 µL. Another modification to simplify clot formation consisted of adding the thrombin (3 µL; 500 nM in saline) to one side of the well and 12 µL of blood to the opposite side of well, before using a heat stretched Pasteur pipette with sealed end to mix the two liquids together using 4 to 5 circular motions around the edge of the well (halo clot). The original methodology involved adding the 5 μL of the clotting mixture to the edge of the well, and then using a micropipette to slowly release the 25 μL of blood to the edge of the well while at the same time maintaining a circular motion. Plates were incubated in a humidified 37 °C incubator for 1 h before use in the thrombolysis assay.
(§2) The thrombolysis assay involved adding 30 µL of Tris buffer (50 mM Tris–HCl, 100 mM NaCl, pH 7.4) with or without peptide followed by 55 µL Tris buffer containing tPA or TNK (5 nM final concentration) and 50% human plasma (final plasma concentration during thrombolysis 27.5%). The final concentration of peptide during thrombolysis ranged from 0.25 to 16 µM (note: an intravenous dose of R18D at 350 nmol/kg, which is likely to be neuroprotective achieves a Cmax of 0.7–0.9 µM in healthy male and female rats; unpublished observation). […] Following the addition of tPA or TNK into the wells, clot lysis was monitored over a 1-h period at 37 °C using a plate reader (Cytation5, BioTek, USA) by measuring absorbance at 510 nm every 1 min immediately after orbital shaking (205 rpm for 5 s). Controls consisted of wells with no thrombin (100% clot lysis; L100%) and wells with no tPA or TNK (0% clot lysis; L0%). At the 1-h time point, the percentage of thrombolysis (%T) in tPA or TNK treated samples (LTX) was calculated by transforming absorbance values based on the formula: % T = (LTX) − (L0%)/(L100%) − (L0%) × 100. In addition, during the 1-h period of clot lysis lag time and maximal activity (also known as maximum velocity or Vmax) of the thrombolysis reaction were calculated. The lag time is defined as the time interval between the first absorbance reading (time = 0) and the line of maximum slope of the thrombolysis reaction. The maximal activity is calculated from the maximum slope over the time course of the assay and reflects the capacity of an enzyme to catalyse a reaction (i.e., thrombolysis), with higher values representing higher catalytic activity (i.e., tPA/TNK induced plasmin thrombolysis).
For each thrombolysis assay, replicates for control wells (L0% and L100%) and tPA or TNK only treated wells consisted of n = 4–8. Replicates for tPA or TNK and peptide treated wells consisted of n = 4. For data analysis and graphical representations of the results, data from three independent thrombolytic assays were pooled. Studies consisted of R18D, R18 and NA-1 examined at the 0.5, 1, 2, 4, 8 or 16 µM concentrations performed concurrently on the same 96-well plate, in respective order. […]

TNK = target: T1, TNK (Homo sapiens, UniProt P00750, H332A/K331A/N152Q/R333A/R334A/T138N); assay: Halo clot thrombolysis assay, TNK thrombolysis of whole blood clots; format: biochemical; settings: concurrent study, 0.5-16 µM peptide, TNK 5 nM, 27.5% human plasma
T1 construct: purchased Boehringer Ingelheim 50 mg vial
Method: as §1, §2
(§3) For each thrombolysis assay, replicates for control wells (L0% and L100%) and tPA or TNK only treated wells consisted of n = 4–8. Replicates for tPA or TNK and peptide treated wells consisted of n = 4. For data analysis and graphical representations of the results, data from three independent thrombolytic assays were pooled. Studies consisted of R18D, R18 and NA-1 examined at the 0.5, 1, 2, 4, 8 or 16 µM concentrations performed concurrently on the same 96-well plate, in respective order. In addition, since R18D is known to be resistant to plasmin degradation and appeared to have the most impact on tPA or TNK thrombolysis, a separate set of three independent assays were performed for this peptide alone at concentrations of 0.25, 0.5, 1, 2, 4, 8 or 16 µM. Furthermore, the second dose study with R18D provided the opportunity to include a lower concentration (0.25 µM) of the peptide and to provide comparative data when only one peptide was examined in the thrombolysis assay per 96-well plate as opposed to examining the three peptides concurrently on the same plate. […]

[3] = test system: patients undergoing thrombectomy; settings: ESCAPE-NA-1 trial, subgroup analysis; cited from earlier work
From the text: The cationic arginine-rich peptides (CARPs) poly-arginine-18 (R18; 18-mer of L-enantiomer arginine; net charge + 18), its D-enantiomer (R18D) and NA-1 (also known as nerinetide or TAT-NR2B9c; net charge + 7) represent emerging neuroprotective therapies for the acute treatment of ischaemic stroke, especially prior to thrombolysis and endovascular thrombectomy.

tPA or TNK [4] = settings: cited from earlier work
From the text: Given the potential future application of the R18D, R18 and NA-1 peptides as ischaemic stroke neurotherapeutics, it is important to establish if they interfere with current and future standard of care treatments, namely alteplase (tPA; recombinant tissue plasminogen activator) and tenecteplase (TNK; a modified version of tPA) thrombolysis, which are routinely administered prior to thrombectomy. Similarly, it is also important to determine whether tPA or TNK may cause proteolytic degradation of the peptides directly or through the activation of plasminogen to plasmin, thereby reducing their pot ...

tPA = target: T2, tPA (Homo sapiens, UniProt P00750); assay: Halo clot thrombolysis assay, tPA thrombolysis of whole blood clots; format: biochemical; settings: tPA 5 nM, 27.5% human plasma; for Increase in tPA lag time / Increase in tPA thrombolysis maximal activity: concurrent study, 37 °C
T2 construct: purchased Boehringer Ingelheim, Germany 10 mg vial
Method: as §1, §2, §3

T1 sequence (P00750 36-562 T138N/N152Q/K331A/H332A/R333A/R334A): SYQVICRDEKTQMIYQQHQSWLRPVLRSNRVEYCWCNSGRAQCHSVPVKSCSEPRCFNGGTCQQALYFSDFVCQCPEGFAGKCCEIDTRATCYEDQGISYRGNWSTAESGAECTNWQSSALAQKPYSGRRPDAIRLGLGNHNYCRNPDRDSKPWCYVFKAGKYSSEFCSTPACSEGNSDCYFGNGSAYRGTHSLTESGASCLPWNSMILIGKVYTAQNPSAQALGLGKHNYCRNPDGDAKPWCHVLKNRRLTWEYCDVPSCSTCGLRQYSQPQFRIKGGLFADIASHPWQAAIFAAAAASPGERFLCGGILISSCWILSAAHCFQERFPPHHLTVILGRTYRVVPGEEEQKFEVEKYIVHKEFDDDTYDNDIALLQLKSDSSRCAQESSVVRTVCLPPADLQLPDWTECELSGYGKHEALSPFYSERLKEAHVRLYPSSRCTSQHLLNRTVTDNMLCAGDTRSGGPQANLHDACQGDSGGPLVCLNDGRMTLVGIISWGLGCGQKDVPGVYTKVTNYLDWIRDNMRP
T2 sequence (P00750 36-562): as the sequence (P00750 36-562 T138N/N152Q/K331A/H332A/R333A/R334A) above, with N103T, Q117N, A296K, A297H, A298R, A299R counted along it

## YGRKKRRQRRRKLSSIESDV [NA-1, reference compound]
[1]
  Neuroprotection in the glutamic acid excitotoxicity model: no to little neuroprotection
tPA or TNK [2]; range over peptide concentrations 0.25-16 µM and both thrombolytics, 1-h assay
  Increase in lag time (time to the commencement of thrombolysis): 0 to 7.16 min
tPA or TNK [2]; summary in abstract
  Effect on maximal activity of the thrombolysis reaction: appeared to increase the maximal activity
TNK
  Effect on TNK lag time vs TNK control: did not significantly increase TNK lag time
  Effect on TNK thrombolysis maximal activity vs TNK control: did not significantly impact TNK thrombolysis maximal activity
TNK; 37 °C, 1 h
  Effect on percentage TNK thrombolysis at 1 h vs TNK control: did not significantly inhibit TNK thrombolysis
[3]
  Outcome of patients who received NA-1 but not alteplase compared with patients who received both NA-1 and alteplase: significantly better functional outcomes, reduced mortality and reduced infarct volume
tPA or TNK [4]
  Interference with the thrombolytic activity of tPA or TNK: does not interfere
tPA; peptide 1 µM
  Increase in tPA lag time: 5.4 min
tPA; peptide 2 µM
  Increase in tPA lag time: 7.16 min
  Increase in tPA thrombolysis maximal activity: 40.68%
tPA; peptide 4 µM
  Increase in tPA thrombolysis maximal activity: 45.1%
tPA; peptide 8 µM
  Increase in tPA thrombolysis maximal activity: 58.65%
tPA; peptide 16 µM
  Increase in tPA thrombolysis maximal activity: 45.65%
tPA; three peptides concurrently on the same plate, 0.5-16 µM peptide, Tris pH 7.4, 37 °C, 1 h, absorbance 510 nm, three independent assays pooled, n = 4, Dunnett's test
  Effect on percentage tPA thrombolysis at 1 h vs tPA control: did not significantly inhibit thrombolysis

From article PMC9259545, “Impact of poly-arginine peptides R18D and R18 on alteplase and tenecteplase thrombolysis in vitro, and neuroprotective stability to proteolysis” (Journal of Thrombosis and Thrombolysis, 2022)
